Assay [1] deals with T1, Rat Kidney Medullary V2 Receptors (Rattus norvegicus, UniProt Q00788).
T1 construct: Medullary tissues from rat kidneys are dissected out; from tissue; host or cells: rat kidney medulla membranes
Briefly: Binding Assay to Rat Kidney Medullary V2 Receptors. As for the experimental part: Binding Assay to Rat Kidney Medullary V2 Receptors
Medullary tissues from rat kidneys are dissected out, cut into small pieces and soaked in a […] sodium chloride solution containing 1.0 mM EDTA with many changes of the liquid phase, until the solution is clear of blood. The tissue is homogenized in a 0.25M sucrose solution containing 1.0 mM EDTA and 0.1 mM PMSF using a Potter-Elvehjem homogenizer with a teflon pestle. The homogenate is filtered through several layers (4 layers) of cheese cloth. The filtrate is rehomogenized using a dounce homogenizer, with a tight fitting pestle. The final homogenate is centrifuged at 1500× g for 15 min. The nuclear pellet is discarded and the supernatant fluid recentrifuged at 40,000× g for 30 min. The resulting pellet formed contains a dark inner part with the exterior., slightly pink. The pink outer part is suspended in a small amount of 50.0 mM Tris. HCl buffer, pH 7.4. The protein content is determined by the Lowry's method (Lowry et al., J. Biol. Chem., 1953). The membrane suspension is stored at -70° C. in 50.0 mM Tris HCl, containing 0.2% inactivated BSA and 0.1 mM PMSF in aliquots of 1.0 ml containing 10.0 mg protein per ml of suspension until use in subsequent binding experiments.
The plates are left undisturbed on the bench top for 120 min to reach equilibrium. Non-specific binding is assessed in the presence of 1.0 μM of unlabeled ligand, added in 20 μl volume. For test compounds, these are solubilized in 50% dimethylsulfoxide (DMSO) and added in 20.0 μl volume to a final incubation volume of 200 μl. Upon completion of binding, the content of each well is filtered off, using a Brandel® cell Harvester (Gaithersburg, Md.). The radioactivity trapped on the filter disk by the ligand-receptor complex is assessed by liquid scintillation counting in a Packard LS Counter, with an efficiency of 65% for tritium. The data are analyzed for IC50 values by the LUNDON-2 program for competition (LUNDON SOFTWARE, Ohio).

Assay [2] concerns the target T2, Rat Hepatic V1 Receptors (Rattus norvegicus, UniProt P30560).
T2 construct: Rat liver plasma membranes expressing the vasopressin V1 receptor subtypes; from tissue; host or cells: rat liver plasma membranes
The assay is described as follows: Binding Assay to Rat Hepatic V1 Receptors. How it is done: Binding Assay to Rat Hepatic V1 Receptors
Rat liver plasma membranes expressing the vasopressin V1 receptor subtypes are isolated by sucrose density gradient according to the method described by Lesko et al., (1973). These membranes are quickly suspended in 50.0 mM Tris.HCl buffer, pH 7.4, containing 0.2% bovine serum albumin (BSA) and 0.1 mM phenylmethylsulfonylfluoride (PMSF) and kept frozen at -70° C. until used in subsequent binding experiments. For binding experiments, the following is added to the wells of a ninety-six well format microtiter plate: 100 μl of 100.0 mM Tris.HCl buffer containing 10.0 mM MgCl2, 0.2% heat inactivated BSA and a mixture of protease inhibitors: leupeptin, 1.0 mg %; aprotinin, 1.0 mg %; 1,10-phenanthroiine,2.0 mg %; trypsin inhibitor, 10.0 mg % and 0.1 mM PMSF, 20.0 μl of [phenylalanyl-3,4,5, -^3 H] vasopressin (S.A. 45.1 Ci/mmole) at 0.8 nM, and the reaction initiated by the addition of 80 μl of tissue membranes containing 20 μg of tissue protein. The plates are kept undisturbed on the bench top at room temperature for 120 min. to reach equilibrium. Non-specific samples are assayed in the presence of 0.1 μM of the unlabeled antagonist phenylalanylvasopressin, added in 20.0 μl volume.
For test compounds, these are solubilized in 50% dimethylsulfoxide (DMSO) and added in 20.0 μl volume to a final incubation volume of 200 μl . Upon completion of binding, the content of each well is filtered off, using a Brandel® cell Harvester (Gaithersburg, Md.). The radioactivity trapped on the filter disk by the ligand-receptor complex is assessed by liquid scintillation counting in a Packard LS Counter, with an efficiency of 65% for tritium. The data are analyzed for IC50 values by the LUNDON-2 program for competition (LUNDON SOFTWARE, Ohio).

For assay [3], the system named is Vasopressin V1. Briefly: Vasopressin V1 Antagonist Activity in Conscious Rats (vasopressin vasopressor response). Format: in vivo, rat. The arrangement: Average Change: unit not given here. The note with it: 10 mg/kg i.v., SHR. As for the experimental part: Vasopressin V1 Antagonist Activity in Conscious Rats
Conscious rats are restrained in a supine position with elastic tape. The area at the base of the tail is locally anesthetized by subcutaneous infiltration with 2% procaine (0.2 ml). Using aseptic technique the ventral caudal tail artery is isolated and a cannula made of PE 10 and 20 (heat-fused) tubing is passed into the lower abdominal aorta. The cannula is secured, heparinized (1000 i.u./cc), sealed and the wound closed with one or two stitches of Dexon 4-0. The caudal vein is also cannulated in the same manner for intravenous drug administration. The duration of the surgery is approximately 5 minutes. Additional local anesthesia (2% procaine or lidocaine) is provided as needed.
The animals are placed in plastic restraining cages in an upright position. The cannula is attached to a Statham P23Db pressure transducer and pulsatile blood pressure is recorded. […] The vasopressin injections are repeated 30,60,90,120,180,240 and 300 min. later. Percentage of antagonism by the compound is calculated using the pre-drug vasopressin vasopressor response as 100%.

The mark [4] stands for this setting: rat kidney medulla membranes, read-out: V2 IC50.
[5] abbreviates: rat liver membranes, read-out: V1 IC50.

Data on twelve compounds can be found in patent US5624923A, “Tricyclic diazepine vasopressin antagonists and oxytocin antagonists” (priority 1995, dated 1997).

As usually defined, the IC50 is the concentration needed to halve the response being measured. The term % Inhibition denotes the share of the control response that was lost under treatment. What is called inhibition is the change of the read-out against control, counted positive when it falls.

Like-named read-outs stand apart in the source and are kept apart here.

T2 sequence (P30560 whole entry): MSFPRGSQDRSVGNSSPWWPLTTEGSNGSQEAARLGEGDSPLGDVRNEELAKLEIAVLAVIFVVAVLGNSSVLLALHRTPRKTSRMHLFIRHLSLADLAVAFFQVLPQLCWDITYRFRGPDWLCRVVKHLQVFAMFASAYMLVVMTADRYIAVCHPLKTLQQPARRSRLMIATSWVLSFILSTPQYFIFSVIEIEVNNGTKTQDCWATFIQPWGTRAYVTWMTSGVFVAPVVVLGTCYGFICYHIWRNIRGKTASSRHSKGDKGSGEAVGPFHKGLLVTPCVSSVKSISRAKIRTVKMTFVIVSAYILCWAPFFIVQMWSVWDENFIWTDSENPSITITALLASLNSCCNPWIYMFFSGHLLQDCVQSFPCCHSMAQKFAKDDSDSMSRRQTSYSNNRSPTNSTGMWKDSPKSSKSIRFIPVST
T1 sequence (Q00788 whole entry): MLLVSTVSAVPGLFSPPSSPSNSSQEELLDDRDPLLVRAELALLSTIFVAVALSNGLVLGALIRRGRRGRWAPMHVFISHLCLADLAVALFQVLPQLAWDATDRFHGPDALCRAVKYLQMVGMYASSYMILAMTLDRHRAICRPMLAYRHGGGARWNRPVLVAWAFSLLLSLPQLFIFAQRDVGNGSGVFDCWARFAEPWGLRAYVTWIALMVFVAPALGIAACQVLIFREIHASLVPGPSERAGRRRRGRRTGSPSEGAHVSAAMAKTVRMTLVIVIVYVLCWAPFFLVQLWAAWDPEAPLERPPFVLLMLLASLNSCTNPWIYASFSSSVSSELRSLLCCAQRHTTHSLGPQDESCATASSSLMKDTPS

Take `Cc1ccccc1C(=O)Nc1ccc(C(=O)N2Cc3cccn3C(=O)c3ccccc32)cc1` [Example 40, 2-Methyl-N-[4-[(5-oxo-5H-pyrrolo[2,1-c]-[1,4]benzodiazepin 10(11H)-yl)carbonyl]phenyl]benzamide]: the IC50 in assay [1] (setting [4]) was 120 nM; in assay [2] (setting [5]) it was 2400 nM.

For the compound `Cc1ccccc1C(=O)Nc1ccc(C(=O)N2Cc3ccc(Cl)n3Cc3ccccc32)cc1` [Example 41, N-[4-(3-Chloro-5H-pyrrolo[2,1c][1,4]benzodiazepine10(11H)ylcarbonyl)phenyl]-2-methylbenzamide], the “% Inhibition” value in assay [3] (VAS 0.01 i.u./kg, 30 min) came to 45%; in assay [3] (VAS 0.01 i.u./kg, 60 min), 59%; in assay [3] (VAS 0.01 i.u./kg, 90 min) it was 36%; in assay [3] (VAS 0.01 i.u./kg, 120 min), 36%; in assay [3] (VAS 0.01 i.u./kg, 180 min), 39%; in assay [3] (VAS 0.01 i.u./kg, 240 min), 43%. The “% Inhibition” value stood at 32% in assay [3] (VAS 0.01 i.u./kg, 300 min); 53% in assay [3] (VAS 0.02 i.u./kg, 30 min); 64% in assay [3] (VAS 0.02 i.u./kg, 60 min); 55% in assay [3] (VAS 0.02 i.u./kg, 90 min); 67% in assay [3] (VAS 0.02 i.u./kg, 120 min); 58% in assay [3] (VAS 0.02 i.u./kg, 180 min). The “% Inhibition” value in assay [3] (VAS 0.02 i.u./kg, 240 min) is 53%; in assay [3] (VAS 0.02 i.u./kg, 300 min) it was 47%. In addition, the “Average Change” value is recorded as 12 in assay [3] (VAS 0.01 i.u./kg, 30 min); 9 in assay [3] (VAS 0.01 i.u./kg, 60 min); 14 in assay [3] (VAS 0.01 i.u./kg, 90 min); 14 in assay [3] (VAS 0.01 i.u./kg, 120 min); 13.5 in assay [3] (VAS 0.01 i.u./kg, 180 min); 12.5 in assay [3] (VAS 0.01 i.u./kg, 240 min). The “Average Change” value in assay [3] (VAS 0.01 i.u./kg, 300 min) is given as 15; in assay [3] (VAS 0.02 i.u./kg, 30 min), 23.5; in assay [3] (VAS 0.02 i.u./kg, 60 min), 18; in assay [3] (VAS 0.02 i.u./kg, 90 min), 22.5; in assay [3] (VAS 0.02 i.u./kg, 120 min) it was 16.5; in assay [3] (VAS 0.02 i.u./kg, 180 min) it was 21. The “Average Change” value in assay [3] (VAS 0.02 i.u./kg, 240 min) amounted to 23.5; in assay [3] (VAS 0.02 i.u./kg, 300 min), 27. Also, the IC50 in assay [1] (setting [4]) came to 17 nM; in assay [2] (setting [5]) it was 37 nM.

Turning to `Cc1ccc(C(=O)Nc2ccc(C(=O)N3Cc4cccn4Cc4ccccc43)cc2)s1` [Example 355, N-[4-(5H-Pyrrolo[2,1-c][1,4]benzodiazepin-10(11)ylcarbonyl)phenyl]-5-methyl-2-thiophenecarboxamide], the IC50 in assay [1] (setting [4]) was 350 nM; in assay [2] (setting [5]) it was 165 nM.

Turning to `O=C(c1ccc(NP(=O)(Oc2ccccc2)Oc2ccccc2)cc1)N1Cc2cccn2Cc2ccccc21` [Example 492], the results for the IC50 in assay [1] and in assay [2] were 3200 nM and 160 nM, respectively.

As for `O=C(c1ccc(NS(=O)(=O)c2cc(Cl)ccc2Cl)cc1)N1Cc2cccn2Cc2ccccc21` [Example 493, 10-[4-[[(2,5-Dichlorophenyl)sulfonyl]amino]benzoyl]-10,11-dihydro-5H-pyrrolo[2,1-c][1,4]benzodiazepine], in assay [1] (10 μM, rat), the inhibition at 10 µM was 68%. In assay [2] (setting [5]), the IC50 came to 140 nM.

On to `O=C(c1ccc(NS(=O)(=O)Cc2ccccc2)cc1)N1Cc2cccn2Cc2ccccc21` [Example 494, 10-[4-[[(Phenylmethyl)sulfonyl]amino]benzoyl]-10,11-dihydro-5H-pyrrolo[2,1-c][1,4]benzodiazepine], for which the IC50 was 5800 nM in assay [1] (setting [4]) and 110 nM in assay [2] (setting [5]).

As for `Cc1ccccc1C(=O)Nc1ccc(C(=O)N2Cc3ccc(CN(C)C)n3Cc3ccccc32)cc1` [Example 660], the IC50 in assay [1] (setting [4]) stood at 64 nM; in assay [2] (setting [5]) it was 73 nM.

Consider `Cc1ccccc1C(=O)Nc1ccc(C(=O)N2Cc3ccc(CN4CCCCC4)n3Cc3ccccc32)cc1` [Example 661, N-[4-[[3-(1-piperidinylmethyl)-5H-pyrrolo[2,1-c][1,4]benzodiazepin-10(11H)-yl]carbonyl]phenyl]-2-methyl-benzamide], for which the IC50 in assay [1] (setting [4]) and in assay [2] (setting [5]) was 57 nM each time.

As for `Cc1ccccc1C(=O)Nc1ccc(C(=O)N2Cc3ccc(CN4CCOCC4)n3Cc3ccccc32)cc1` [Example 662, N-[4-[[3-(4-morpholinomethyl)-5H-pyrrolo[2,1-c][1,4]benzodiazepin-10(11H)-yl]carbonyl]phenyl]-2-methyl-benzamide], the IC50 in assay [1] (setting [4]) is 35 nM; in assay [2] (setting [5]) it was 40 nM.

As to `Cc1ccccc1C(=O)Nc1ccc(C(=O)N2Cc3ccc(CN4CCN(Cc5ccccc5)CC4)n3Cc3ccccc32)cc1` [Example 663, N-[4-[[3-[[4-(phenylmethyl)-1-piperazinyl]methyl]-5H-pyrrolo[2,1-c][1,4]-benzodiazepin-10(11H)-yl]carbonyl]-phenyl]-2-methylbenzamide], the IC50 in assay [1] (setting [4]) worked out at 25 nM; in assay [2] (setting [5]) it was 9 nM.

In the case of `CC(=O)c1ccc2n1Cc1ccccc1N(C(=O)c1ccc(NC(=O)c3ccc(Cl)cc3Cl)cc1)C2` [Example 670, N-[4-[(3-Acetyl-5H-pyrrolo[2,1-c][1,4]benzodiazepin-10(11H)-yl]carbonyl]phenyl]-2,4-dichlorobenzamide], the IC50 in assay [1] (setting [4]) amounted to 290 nM; in assay [2] (setting [5]) it was 1100 nM.

As for `O=C(Nc1ccc(C(=O)N2Cc3cccn3Cc3ccccc32)c(Cl)c1)c1cccc(C(F)(F)F)c1F` [Example 699, N-[4-(5H-pyrrolo[2,1-c][1,4]benzodiazepin-10(11H)-ylcarbonyl)-3-chloro-phenyl]-2-fluoro-3-(trifluoromethyl)benzamide], the inhibition at 1 µM worked out at 100% in assay [1] (1 μM, rat) and 19% in assay [2] (2 h, 1 μM, rat).
